Source: the supplement of paper PMC10307832

Assays:
Experiment in all cases: relative viability (nuclei count vs DMSO), 5 days (fraction); higher = more cells survive
Pemetrexed + Foretinib = compound: Nc1nc2[nH]cc(CCc3ccc(C(=O)N[C@@H](CCC(=O)O)C(=O)O)cc3)c2c(=O)[nH]1 [Pemetrexed] + COc1cc2c(Oc3ccc(NC(=O)C4(C(=O)Nc5ccc(F)cc5)CC4)cc3F)ccnc2cc1OCCCN1CCOCC1 [Foretinib] (partner 0.25 µM)
Outline: (§1)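 Lung cancer cell lines, seeded in 1536-well plates, were treated the following day by pin tool with a single drug or with five library-drug doses (not always all listed) in √10 steps on top of a fixed anchor-drug dose. Cells were fixed and nuclei stained in one step after 5 days, and nuclei were counted. Relative viability is the nuclei count for treated wells divided by that for vehicle wells, reported as medians of duplicate plates.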

Idelalisib + AZD7762 = compound: CC[C@H](Nc1ncnc2[nH]cnc12)c1nc2cccc(F)c2c(=O)n1-c1ccccc1 [Idelalisib] + NC(=O)Nc1cc(-c2cccc(F)c2)sc1C(=O)N[C@H]1CCCNC1 [AZD7762] (partner 0.2 µM)
Outline: as §1

Pemetrexed + Dasatinib = compound: Nc1nc2[nH]cc(CCc3ccc(C(=O)N[C@@H](CCC(=O)O)C(=O)O)cc3)c2c(=O)[nH]1 [Pemetrexed] + Cc1nc(Nc2ncc(C(=O)Nc3c(C)cccc3Cl)s2)cc(N2CCN(CCO)CC2)n1 [Dasatinib] (partner 0.075 µM)
Outline: as §1

Idelalisib + Lapatinib = compound: CC[C@H](Nc1ncnc2[nH]cnc12)c1nc2cccc(F)c2c(=O)n1-c1ccccc1 [Idelalisib] + CS(=O)(=O)CCNCc1ccc(-c2ccc3ncnc(Nc4ccc(OCc5cccc(F)c5)c(Cl)c4)c3c2)o1 [Lapatinib] (partner 2 µM)
Outline: as §1

Cell Line: RERF-LC-KJ
- relative viability (Pemetrexed + Foretinib; first compound 0.002 µM): 0.84
- relative viability (Pemetrexed + Foretinib; first compound 0.006325 µM): 0.84
- relative viability (Pemetrexed + Foretinib; first compound 0.02 µM): 0.866
- relative viability (Pemetrexed + Foretinib; first compound 0.06325 µM): 0.857
- relative viability (Pemetrexed + Foretinib; first compound 0.2 µM): 0.749
- relative viability (Idelalisib + AZD7762; first compound 0.04 µM): 1.05
- relative viability (Idelalisib + AZD7762; first compound 0.1265 µM): 0.947
- relative viability (Idelalisib + AZD7762; first compound 0.4 µM): 0.924
- relative viability (Idelalisib + AZD7762; first compound 1.265 µM): 1.06
- relative viability (Idelalisib + AZD7762; first compound 4 µM): 0.783
- relative viability (Pemetrexed + Dasatinib; first compound 0.002 µM): 0.767
- relative viability (Pemetrexed + Dasatinib; first compound 0.006325 µM): 0.881
- relative viability (Pemetrexed + Dasatinib; first compound 0.02 µM): 0.856
- relative viability (Pemetrexed + Dasatinib; first compound 0.06325 µM): 0.849
- relative viability (Pemetrexed + Dasatinib; first compound 0.2 µM): 0.382
- relative viability (Idelalisib + Lapatinib; first compound 0.04 µM): 0.763
- relative viability (Idelalisib + Lapatinib; first compound 0.1265 µM): 0.872
- relative viability (Idelalisib + Lapatinib; first compound 0.4 µM): 0.814
- relative viability (Idelalisib + Lapatinib; first compound 1.265 µM): 0.83
- relative viability (Idelalisib + Lapatinib; first compound 4 µM): 0.789

Cell Line: NCI-H1793
- relative viability (Pemetrexed + Foretinib; first compound 0.002 µM): 0.844
- relative viability (Pemetrexed + Foretinib; first compound 0.006325 µM): 0.575
- relative viability (Pemetrexed + Foretinib; first compound 0.02 µM): 0.733
- relative viability (Pemetrexed + Foretinib; first compound 0.06325 µM): 0.465
- relative viability (Pemetrexed + Foretinib; first compound 0.2 µM): 0.749
- relative viability (Idelalisib + AZD7762; first compound 0.04 µM): 0.758
- relative viability (Idelalisib + AZD7762; first compound 0.1265 µM): 0.449
- relative viability (Idelalisib + AZD7762; first compound 1.265 µM): 0.14
- relative viability (Idelalisib + AZD7762; first compound 4 µM): 0.326
- relative viability (Pemetrexed + Dasatinib; first compound 0.002 µM): 0.312
- relative viability (Pemetrexed + Dasatinib; first compound 0.006325 µM): 0.294
- relative viability (Pemetrexed + Dasatinib; first compound 0.02 µM): 0.46
- relative viability (Pemetrexed + Dasatinib; first compound 0.06325 µM): 0.375
- relative viability (Pemetrexed + Dasatinib; first compound 0.2 µM): 0.412
- relative viability (Idelalisib + Lapatinib; first compound 0.04 µM): 0.664
- relative viability (Idelalisib + Lapatinib; first compound 0.1265 µM): 0.635
- relative viability (Idelalisib + Lapatinib; first compound 0.4 µM): 0.406
- relative viability (Idelalisib + Lapatinib; first compound 1.265 µM): 0.583
- relative viability (Idelalisib + Lapatinib; first compound 4 µM): 0.651

Cell Line: CAL-12T
- relative viability (Pemetrexed + Foretinib; first compound 0.002 µM): 1.04
- relative viability (Pemetrexed + Foretinib; first compound 0.006325 µM): 1.07
- relative viability (Pemetrexed + Foretinib; first compound 0.02 µM): 1.24
- relative viability (Pemetrexed + Foretinib; first compound 0.06325 µM): 1.17
- relative viability (Pemetrexed + Foretinib; first compound 0.2 µM): 1.04
- relative viability (Idelalisib + AZD7762; first compound 0.04 µM): 0.843
- relative viability (Idelalisib + AZD7762; first compound 0.1265 µM): 0.653
- relative viability (Idelalisib + AZD7762; first compound 0.4 µM): 0.713
- relative viability (Idelalisib + AZD7762; first compound 1.265 µM): 0.398
- relative viability (Idelalisib + AZD7762; first compound 4 µM): 0.654
- relative viability (Pemetrexed + Dasatinib; first compound 0.002 µM): 0.327
- relative viability (Pemetrexed + Dasatinib; first compound 0.006325 µM): 0.322
- relative viability (Pemetrexed + Dasatinib; first compound 0.02 µM): 0.515
- relative viability (Pemetrexed + Dasatinib; first compound 0.06325 µM): 0.43
- relative viability (Pemetrexed + Dasatinib; first compound 0.2 µM): 0.5
- relative viability (Idelalisib + Lapatinib; first compound 0.04 µM): 0.672
- relative viability (Idelalisib + Lapatinib; first compound 0.1265 µM): 0.7
- relative viability (Idelalisib + Lapatinib; first compound 0.4 µM): 0.616
- relative viability (Idelalisib + Lapatinib; first compound 1.265 µM): 0.471
- relative viability (Idelalisib + Lapatinib; first compound 4 µM): 0.501

Cell Line: NCI-H1993
- relative viability (Pemetrexed + Foretinib; first compound 0.002 µM): 0.806
- relative viability (Pemetrexed + Foretinib; first compound 0.006325 µM): 0.838
- relative viability (Pemetrexed + Foretinib; first compound 0.02 µM): 0.74
- relative viability (Pemetrexed + Foretinib; first compound 0.06325 µM): 0.774
- relative viability (Pemetrexed + Foretinib; first compound 0.2 µM): 0.811
- relative viability (Idelalisib + AZD7762; first compound 0.04 µM): 0.647
- relative viability (Idelalisib + AZD7762; first compound 0.1265 µM): 0.839
- relative viability (Idelalisib + AZD7762; first compound 0.4 µM): 0.652
- relative viability (Idelalisib + AZD7762; first compound 1.265 µM): 0.714
- relative viability (Idelalisib + AZD7762; first compound 4 µM): 0.623
- relative viability (Pemetrexed + Dasatinib; first compound 0.002 µM): 0.325
- relative viability (Pemetrexed + Dasatinib; first compound 0.006325 µM): 0.606
- relative viability (Pemetrexed + Dasatinib; first compound 0.02 µM): 0.546
- relative viability (Pemetrexed + Dasatinib; first compound 0.06325 µM): 0.496
- relative viability (Pemetrexed + Dasatinib; first compound 0.2 µM): 0.358
- relative viability (Idelalisib + Lapatinib; first compound 0.04 µM): 0.816
- relative viability (Idelalisib + Lapatinib; first compound 0.1265 µM): 0.887
- relative viability (Idelalisib + Lapatinib; first compound 0.4 µM): 0.76
- relative viability (Idelalisib + Lapatinib; first compound 1.265 µM): 0.802
- relative viability (Idelalisib + Lapatinib; first compound 4 µM): 0.84

Cell Line: LXF-289
- relative viability (Pemetrexed + Foretinib; first compound 0.002 µM): 0.925
- relative viability (Pemetrexed + Foretinib; first compound 0.006325 µM): 0.994
- relative viability (Pemetrexed + Foretinib; first compound 0.02 µM): 1.03
- relative viability (Pemetrexed + Foretinib; first compound 0.06325 µM): 0.991
- relative viability (Pemetrexed + Foretinib; first compound 0.2 µM): 0.959
- relative viability (Idelalisib + AZD7762; first compound 0.04 µM): 1.16
- relative viability (Idelalisib + AZD7762; first compound 0.1265 µM): 1.09
- relative viability (Idelalisib + AZD7762; first compound 0.4 µM): 1.15
- relative viability (Idelalisib + AZD7762; first compound 1.265 µM): 0.838
- relative viability (Idelalisib + AZD7762; first compound 4 µM): 1.16
- relative viability (Pemetrexed + Dasatinib; first compound 0.002 µM): 0.175
- relative viability (Pemetrexed + Dasatinib; first compound 0.006325 µM): 0.192
- relative viability (Pemetrexed + Dasatinib; first compound 0.02 µM): 0.239
- relative viability (Pemetrexed + Dasatinib; first compound 0.06325 µM): 0.281
- relative viability (Pemetrexed + Dasatinib; first compound 0.2 µM): 0.217
- relative viability (Idelalisib + Lapatinib; first compound 0.04 µM): 0.945
- relative viability (Idelalisib + Lapatinib; first compound 0.1265 µM): 0.901
- relative viability (Idelalisib + Lapatinib; first compound 0.4 µM): 0.906
- relative viability (Idelalisib + Lapatinib; first compound 1.265 µM): 0.96
- relative viability (Idelalisib + Lapatinib; first compound 4 µM): 0.943

Cell Line: LU99A
- relative viability (Pemetrexed + Foretinib; first compound 0.002 µM): 0.776
- relative viability (Pemetrexed + Foretinib; first compound 0.006325 µM): 0.775
- relative viability (Pemetrexed + Foretinib; first compound 0.02 µM): 0.811
- relative viability (Pemetrexed + Foretinib; first compound 0.06325 µM): 0.793
- relative viability (Pemetrexed + Foretinib; first compound 0.2 µM): 0.768
- relative viability (Idelalisib + AZD7762; first compound 0.04 µM): 0.335
- relative viability (Idelalisib + AZD7762; first compound 0.1265 µM): 0.422
- relative viability (Idelalisib + AZD7762; first compound 0.4 µM): 0.294
- relative viability (Idelalisib + AZD7762; first compound 1.265 µM): 0.209
- relative viability (Idelalisib + AZD7762; first compound 4 µM): 0.425
- relative viability (Pemetrexed + Dasatinib; first compound 0.002 µM): 0.504
- relative viability (Pemetrexed + Dasatinib; first compound 0.006325 µM): 0.441
- relative viability (Pemetrexed + Dasatinib; first compound 0.02 µM): 0.459
- relative viability (Pemetrexed + Dasatinib; first compound 0.06325 µM): 0.516
- relative viability (Pemetrexed + Dasatinib; first compound 0.2 µM): 0.542
- relative viability (Idelalisib + Lapatinib; first compound 0.04 µM): 0.923
- relative viability (Idelalisib + Lapatinib; first compound 0.1265 µM): 0.912
- relative viability (Idelalisib + Lapatinib; first compound 0.4 µM): 0.862
- relative viability (Idelalisib + Lapatinib; first compound 1.265 µM): 1.14
- relative viability (Idelalisib + Lapatinib; first compound 4 µM): 1.04

Cell Line: NCI-H1755
- relative viability (Pemetrexed + Foretinib; first compound 0.002 µM): 0.871
- relative viability (Pemetrexed + Foretinib; first compound 0.006325 µM): 0.925
- relative viability (Pemetrexed + Foretinib; first compound 0.02 µM): 0.94
- relative viability (Pemetrexed + Foretinib; first compound 0.06325 µM): 0.923
- relative viability (Pemetrexed + Foretinib; first compound 0.2 µM): 0.849
- relative viability (Idelalisib + AZD7762; first compound 0.04 µM): 0.386
- relative viability (Idelalisib + AZD7762; first compound 0.1265 µM): 0.437
- relative viability (Idelalisib + AZD7762; first compound 0.4 µM): 0.376
- relative viability (Idelalisib + AZD7762; first compound 1.265 µM): 0.31
- relative viability (Idelalisib + AZD7762; first compound 4 µM): 0.381
- relative viability (Pemetrexed + Dasatinib; first compound 0.002 µM): 0.397
- relative viability (Pemetrexed + Dasatinib; first compound 0.006325 µM): 0.409
- relative viability (Pemetrexed + Dasatinib; first compound 0.02 µM): 0.448
- relative viability (Pemetrexed + Dasatinib; first compound 0.06325 µM): 0.436
- relative viability (Pemetrexed + Dasatinib; first compound 0.2 µM): 0.379
- relative viability (Idelalisib + Lapatinib; first compound 0.04 µM): 1.11
- relative viability (Idelalisib + Lapatinib; first compound 0.1265 µM): 0.999
- relative viability (Idelalisib + Lapatinib; first compound 0.4 µM): 0.966
- relative viability (Idelalisib + Lapatinib; first compound 1.265 µM): 1.06
- relative viability (Idelalisib + Lapatinib; first compound 4 µM): 0.97

Cell Line: LOU-NH91
- relative viability (Pemetrexed + Foretinib; first compound 0.002 µM): 0.941
- relative viability (Pemetrexed + Foretinib; first compound 0.006325 µM): 0.915
- relative viability (Pemetrexed + Foretinib; first compound 0.02 µM): 0.992
- relative viability (Pemetrexed + Foretinib; first compound 0.06325 µM): 0.709
- relative viability (Pemetrexed + Foretinib; first compound 0.2 µM): 0.434
- relative viability (Idelalisib + AZD7762; first compound 0.04 µM): 0.833
- relative viability (Idelalisib + AZD7762; first compound 0.1265 µM): 0.807
- relative viability (Idelalisib + AZD7762; first compound 0.4 µM): 0.686
- relative viability (Idelalisib + AZD7762; first compound 1.265 µM): 0.638
- relative viability (Idelalisib + AZD7762; first compound 4 µM): 0.673
- relative viability (Pemetrexed + Dasatinib; first compound 0.002 µM): 0.495
- relative viability (Pemetrexed + Dasatinib; first compound 0.006325 µM): 0.576
- relative viability (Pemetrexed + Dasatinib; first compound 0.02 µM): 0.599
- relative viability (Pemetrexed + Dasatinib; first compound 0.06325 µM): 0.457
- relative viability (Pemetrexed + Dasatinib; first compound 0.2 µM): 0.345
- relative viability (Idelalisib + Lapatinib; first compound 0.04 µM): 0.82
- relative viability (Idelalisib + Lapatinib; first compound 0.1265 µM): 0.737
- relative viability (Idelalisib + Lapatinib; first compound 0.4 µM): 0.67
- relative viability (Idelalisib + Lapatinib; first compound 1.265 µM): 0.725
- relative viability (Idelalisib + Lapatinib; first compound 4 µM): 0.75
